# Patent US20170266157A1, “METHODS FOR WOUND HEALING AND SCAR PREVENTION” (priority 2016, published 2017)
# How the values were obtained:
# [1] = tested on: stem cell markers Oct-4 and Sox-2; assay: Stem cell marker immunohistology of treated 5 mm dermal biopsy punch sites; assay type: in vivo, person; settings: RT175 in Amantle cream base daily for 30 days, re-biopsy, 10 micron sections
# Method: A person underwent bilateral 5 millimeter (“mm”) dermal biopsy punches in the forearm, 5 centimeter (“cm”) distal to the antecubital space. Treatment with RT175 in an Amantle™ cream base, or with the Amantle™ cream base alone was begun immediately upon hemostasis. The skin was treated daily for 30 days, whereupon the sites were re-biopsied and the tissue processed for immunohistology. 10 micron thick sections were stained for the expression of the stem cell markers Oct-4, see FIG. 4, panels a. and c., or Sox-2, see FIG. 4, panels b. and d. […] Not to be held to a particular theory, the presence of stem cells markers in RT175 treated wound sites indicates active stem cells. The presence of these stem cells in the wound site causes rapid and proper wound healing without the formation of scar tissue. In turn, the absence of stem cells from wound sites allows the formation of scar tissue.
# [2] = target: T1, FK506 binding protein 4 (FKBP52) (Homo sapiens, UniProt Q02790); settings: cited from earlier work
# T1 sequence (Q02790 1-459): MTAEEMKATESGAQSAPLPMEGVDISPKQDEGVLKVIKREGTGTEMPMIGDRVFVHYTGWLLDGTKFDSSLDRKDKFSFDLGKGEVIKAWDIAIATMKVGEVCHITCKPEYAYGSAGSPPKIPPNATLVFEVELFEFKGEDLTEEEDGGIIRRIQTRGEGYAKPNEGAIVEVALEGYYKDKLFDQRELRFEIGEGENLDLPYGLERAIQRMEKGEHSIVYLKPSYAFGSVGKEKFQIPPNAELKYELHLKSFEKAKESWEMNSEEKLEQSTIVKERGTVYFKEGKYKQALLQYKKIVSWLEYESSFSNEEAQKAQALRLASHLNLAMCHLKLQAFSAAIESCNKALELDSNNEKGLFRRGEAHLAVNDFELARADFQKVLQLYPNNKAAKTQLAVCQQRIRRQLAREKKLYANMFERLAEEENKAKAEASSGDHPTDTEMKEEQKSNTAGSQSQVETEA
# [3] = tested on: ED&C sites of the supradeltoid regions of the upper arm; assay: Healing after electrodissection and curettage (ED&C) of the upper arm, topical treatment; assay type: in vivo, person
# Method: The supradeltoid regions of the left and right upper arm were treated by electrodissection and curettage (“ED&C”) for treatment of basal cell […]. Beginning on the day of surgery, and daily thereafter the sites were treated with RT175 in an Amantle™ cream base, or with the Amantle™ cream base alone. […] See FIG. 2, Day 20, bottom panel. In contrast, 68 days after the procedure the vehicle treated site was still not fully closed. Six-months following the procedure, the RT175-treated site was scar-free, see FIG. 3, panel a., while the vehicle-treated site has a pronounced, hypopigmented stellate shaped scar, see FIG. 3, panel b.
# FKBP52 = target: T2, FKBP52 (Homo sapiens, UniProt Q02790); settings: treatment of fibroblasts for 2 hours; cited from earlier work
# T2 construct: endogenous in cells
# T2 sequence (Q02790 1-459): T1 sequence (Q02790 1-459)
# [4] = tested on: resection site of a periauricular basal cell carcinoma; assay: Healing of full-thickness resection site of periauricular basal cell carcinoma, topical treatment; assay type: in vivo, person
# Excerpt: A person underwent a full-thickness resection of a basal cell carcinoma on an outpatient basis. See FIG. 1, panel a. showing wound during operation and panel b. showing wound immediately post operation. RT175 formulated in an Amantle™ cream base was applied immediately post-operatively, and then daily thereafter for 12 days. […] An archival photo of a scar biopsy is included for comparison.
# [5] = tested on: ear punch-hole wound (mouse pinna); assay: Punch-hole biopsy of the ear of mice, topical treatment; assay type: in vivo, ICR breeder mice; settings: topical once daily, within 21 days of punch-hole biopsy; 2.4 μg RT1061, 80 μg FK506
# Method: Retired ICR breeder mice of both sexes with weight between 45 and 50 grams were subject to single bilateral punch-hole biopsies. The animals were then randomly assigned to one of three groups to receive either 2.4 μg of RT1061, 80 μg FK506 or a vehicle control. RT1061, FK506 or vehicle control was applied topically to both the ventral and dorsal surface of the ear, once each day including immediately after biopsy.
# All wounds were photographed using a Nikon CoolPix 990 digital camera. Each image included a metric ruler that had been approximated to the wound. The images of the wounds were opened in Adobe Photoshop, and using the “measurement tool”, the length, in pixels, of 3 cm along the ruler's straight edge was determined. That number was used to calculate a conversion factor that was then used to normalize each photograph. The conversion factor was calculated as 100/length. To normalize the area of the lesion in a photograph, the […] using the “magic wand” tool, and the number of voxels were multiplied by the conversion factor, thus generating the equation: area=volume (voxels)*conversion factor. The area at t=0 was defined as 100%. […] The mean area of the initial hole was calculated as average […] of the punches at t=0 (determined by using an outline of the hole measured against the ruler, using Adobe Photoshop) times π. […]
# [6] = tested on: dermabrasion lesions of dorsal skin; assay: Dermabrasion lesions of dorsal skin of mice, topical treatment; assay type: in vivo, ICR breeder mice; settings: 5 μL of 100 nanomolar RT1061 topical once daily, 10 days after rasping
# Method: Retired ICR breeder mice of both sexes with weight between 45 and 50 grams were shaved and rasped to induce dermabrasion lesions. The animals were then randomly assigned (5 per treatment arm) to one of two groups to receive either 5 μL of 100 nanomolar RT1061 or a vehicle control. RT1061 or vehicle control was applied topically to the lesion site once each day including immediately after dermabrasion.
SMILES,expression of stem cell markers Oct-4 and Sox-2 in treated tissue [1],binding affinity to FKBP52 [2],"treated site fully closed by ([3]; RT175 in Amantle cream base daily, vehicle site still not fully closed at 68 days)",scar at treated site ([3]; six months following the procedure),translocation of FKBP52 (FKBP52),"scar observed, skin appearance ([4]; 12th post-operative day, RT175 in Amantle cream base daily)","wound closed and largely healed by ([4]; RT175 in Amantle cream base, applied immediately post-operatively then daily for 12 days)",scar tissue by biopsy ([4]; biopsy 6 months later),regeneration of mouse pinna tissue (ear-hole closure) [5],hair growth [6],regeneration of rasped skin [6]
CCC(C)(C)C(=O)C(=O)N1CCC[C@H]1C(=O)O [RT175],expressed both stem cell markers,high affinity,≤ 20 post-operative day,scar-free,translocation of FKBP52 to the nucleus,little to no scar,≤ 7 post-operative day,absence of scar tissue,–,–,–
"CCC(C)(C)C(=O)C(=O)N1CCCC1Cc1ccccc1 (centres unmarked) [RT1061, 1-(2-benzylpyrrolidin-1-yl)-3,3-dimethylpentane-1,2-dione]",–,–,–,–,–,–,–,–,almost complete regeneration of the mouse pinna,rapid hair growth,rapid regeneration of rasped skin
